Each block holds one compound with its values, some of them ahead of it.
How the values were obtained:
[1] = target: T1, Dual specificity tyrosine-phosphorylation-regulated kinase 1A (Homo sapiens, UniProt Q13627); test: Inhibition of DYRK1A (unknown origin) at 10 uM relative to control
[2] = target: T1, Dual specificity tyrosine-phosphorylation-regulated kinase 1A; test: Inhibition of GST-tagged DYRK1A (unknown origin) expressed in Escherichia coli DH5alpha using RRRFRPASPLRGPPK as substrate after 30 mins by kinase-glo luminescence assay
[3] = target: T1, Dual specificity tyrosine-phosphorylation-regulated kinase 1A; test: Inhibition of GST-tagged DYRK1A (unknown origin) expressed in Escherichia coli DH5alpha at 1 uM using RRRFRPASPLRGPPK as substrate after 30 mins by kinase-glo luminescence assay relative to control
[4] = target: T2, Amine oxidase [flavin-containing] A (Homo sapiens, UniProt P21397); test: Inhibition of human recombinant MAO-A after 1 hr by MAO-Glo assay
T2 sequence (P21397 whole entry): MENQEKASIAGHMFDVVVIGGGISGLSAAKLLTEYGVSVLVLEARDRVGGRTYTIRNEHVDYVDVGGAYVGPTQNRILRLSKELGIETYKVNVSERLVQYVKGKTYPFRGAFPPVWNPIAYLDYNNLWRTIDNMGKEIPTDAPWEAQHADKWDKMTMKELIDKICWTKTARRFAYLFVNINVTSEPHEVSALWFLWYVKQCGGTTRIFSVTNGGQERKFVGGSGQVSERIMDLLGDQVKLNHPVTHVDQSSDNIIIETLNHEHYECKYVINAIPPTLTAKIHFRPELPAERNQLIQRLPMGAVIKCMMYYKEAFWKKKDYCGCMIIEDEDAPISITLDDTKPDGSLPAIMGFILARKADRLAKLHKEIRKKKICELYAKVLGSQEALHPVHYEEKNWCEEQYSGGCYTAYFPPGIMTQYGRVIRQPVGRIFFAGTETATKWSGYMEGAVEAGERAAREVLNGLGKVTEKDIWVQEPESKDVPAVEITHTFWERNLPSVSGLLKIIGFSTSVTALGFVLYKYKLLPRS

[5] = target: Dual specificity protein kinase CLK1 (Homo sapiens, UniProt P49759); test: Inhibition of CLK1 (unknown origin)
[6] = target: Dual specificity protein kinase CLK2 (Homo sapiens, UniProt P49760); test: Inhibition of CLK2 (unknown origin)
[7] = target: T3, Dual specificity tyrosine-phosphorylation-regulated kinase 2 (Homo sapiens, UniProt Q92630); test: Inhibition of DYRK2 (unknown origin)
T3 sequence (Q92630 whole entry): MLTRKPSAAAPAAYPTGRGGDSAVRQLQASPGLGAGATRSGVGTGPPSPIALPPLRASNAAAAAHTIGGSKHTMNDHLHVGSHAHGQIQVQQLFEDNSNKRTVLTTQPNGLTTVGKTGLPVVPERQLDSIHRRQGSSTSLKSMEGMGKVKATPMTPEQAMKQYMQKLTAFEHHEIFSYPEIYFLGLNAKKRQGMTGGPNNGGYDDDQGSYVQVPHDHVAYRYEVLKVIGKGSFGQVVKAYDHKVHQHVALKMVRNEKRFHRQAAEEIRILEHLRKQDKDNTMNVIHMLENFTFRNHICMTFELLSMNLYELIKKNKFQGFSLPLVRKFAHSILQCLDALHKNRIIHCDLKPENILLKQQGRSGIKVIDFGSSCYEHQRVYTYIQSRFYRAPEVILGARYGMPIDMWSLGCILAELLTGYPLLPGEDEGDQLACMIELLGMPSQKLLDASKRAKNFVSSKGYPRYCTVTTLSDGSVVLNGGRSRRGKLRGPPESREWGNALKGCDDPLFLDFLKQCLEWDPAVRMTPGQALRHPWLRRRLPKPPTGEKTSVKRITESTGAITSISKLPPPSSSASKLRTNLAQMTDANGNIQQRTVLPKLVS

[8] = target: T4, Dual specificity tyrosine-phosphorylation-regulated kinase 1B (Homo sapiens, UniProt Q9Y463); test: Inhibition of DYRK1B (unknown origin)
[9] = target: T1, Dual specificity tyrosine-phosphorylation-regulated kinase 1A; test: Inhibition of DYRK1A (unknown origin)
[10] = target: Glycogen synthase kinase-3 (Homo sapiens, UniProt P49840+P49841); test: Inhibition of GSK-3 (unknown origin); type: protein assay
[11] = Inhibition of CLK (unknown origin); design: species or system Homo sapiens
SW-620 = test: cells; conditions: Homo sapiens, SW-620, 96 h
[12] = target: T1, Dual specificity tyrosine-phosphorylation-regulated kinase 1A; test: Inhibition of human recombinant full length GST-tagged DYRK1A expressed in baculovirus expression system assessed as decrease in tau phosphorylation at S396 preincubated for 10 mins followed by tau addition by Western blot analysis
[13] = target: T5, Dual specificity tyrosine-phosphorylation-regulated kinase 1A (Rattus norvegicus, UniProt Q63470); test: Inhibition of rat recombinant GST-fused DYRK1A expressed in Escherichia coli in presence of [gamma-33P]ATP after 30 mins by scintillation counting analysis
[14] = target: T1, Dual specificity tyrosine-phosphorylation-regulated kinase 1A; test: Inhibition of DYRK1A (unknown origin) by cell-based assay
Casein kinase 2 = Casein kinase 2 (Rattus norvegicus, UniProt P19139); test: Inhibition of rat liver CK2 using RRRADDSDDDDD as substrate after 10 mins in presence of [gamma-33P]ATP
[15] = target: T4, Dual specificity tyrosine-phosphorylation-regulated kinase 1B; test: Inhibition of human recombinant full length N-terminal GST-tagged DYRK1B expressed in baculovirus expression system using DYRKtide-F as substrate after 1 hr by electrophoretic analysis
[16] = target: Cyclin-dependent kinase 9 (Homo sapiens, UniProt P50750); test: Inhibition of human full-length N-terminal GST-fused CDK9 (1 to 372 residues) expressed in baculovirus expression system using MBP as substrate after 100 mins by TR-FRET assay
[17] = target: T5, Dual specificity tyrosine-phosphorylation-regulated kinase 1A; test: Inhibition of rat DYRK1A using KKISGRLSPIMTEQ as substrate in presence of [gamma-33P]ATP after 30 mins by scintillation counting analysis
[18] = target: T6, MAP kinase-activated protein kinase 5 (Homo sapiens, UniProt Q8IW41); test: Inhibition of PRAK (unknown origin)
T6 sequence (Q8IW41 whole entry): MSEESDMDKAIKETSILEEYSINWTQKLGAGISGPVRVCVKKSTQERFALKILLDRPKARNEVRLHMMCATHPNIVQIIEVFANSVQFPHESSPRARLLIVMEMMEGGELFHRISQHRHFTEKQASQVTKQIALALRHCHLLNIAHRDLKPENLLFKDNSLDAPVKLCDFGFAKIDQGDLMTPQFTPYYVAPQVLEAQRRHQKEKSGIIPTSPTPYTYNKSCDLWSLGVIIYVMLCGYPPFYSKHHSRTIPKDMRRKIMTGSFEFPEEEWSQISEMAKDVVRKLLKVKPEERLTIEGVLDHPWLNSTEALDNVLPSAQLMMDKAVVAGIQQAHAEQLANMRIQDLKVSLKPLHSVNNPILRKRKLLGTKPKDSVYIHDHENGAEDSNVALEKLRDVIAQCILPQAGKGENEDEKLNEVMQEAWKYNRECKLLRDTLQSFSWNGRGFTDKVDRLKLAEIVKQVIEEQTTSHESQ

[19] = target: T7, MAP kinase-activated protein kinase 5 (Homo sapiens) (UniProt Q8IW41); test: Inhibition of PRAK (unknown origin) at 50 uM
T7 sequence (whole entry): T6 sequence (Q8IW41 whole entry)

[20] = target: T1, Dual specificity tyrosine-phosphorylation-regulated kinase 1A; test: Inhibition of DYRK1A (unknown origin) at 50 uM
[21] = target: Aurora kinase B (Homo sapiens) (UniProt Q96GD4); test: Inhibition of aurora B (unknown origin) at 50 uM
Chain of Aurora kinase B (Homo sapiens) (Q96GD4 whole entry): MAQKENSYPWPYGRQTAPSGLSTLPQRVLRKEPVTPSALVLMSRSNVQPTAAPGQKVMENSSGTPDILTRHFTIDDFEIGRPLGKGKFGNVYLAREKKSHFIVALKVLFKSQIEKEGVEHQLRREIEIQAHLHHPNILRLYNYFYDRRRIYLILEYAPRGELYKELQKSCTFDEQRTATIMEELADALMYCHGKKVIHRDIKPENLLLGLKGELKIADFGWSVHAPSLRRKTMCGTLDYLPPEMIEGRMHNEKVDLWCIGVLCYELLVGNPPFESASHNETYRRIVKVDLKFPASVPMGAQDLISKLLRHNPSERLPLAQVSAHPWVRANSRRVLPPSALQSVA

T4 sequence (Q9Y463 whole entry): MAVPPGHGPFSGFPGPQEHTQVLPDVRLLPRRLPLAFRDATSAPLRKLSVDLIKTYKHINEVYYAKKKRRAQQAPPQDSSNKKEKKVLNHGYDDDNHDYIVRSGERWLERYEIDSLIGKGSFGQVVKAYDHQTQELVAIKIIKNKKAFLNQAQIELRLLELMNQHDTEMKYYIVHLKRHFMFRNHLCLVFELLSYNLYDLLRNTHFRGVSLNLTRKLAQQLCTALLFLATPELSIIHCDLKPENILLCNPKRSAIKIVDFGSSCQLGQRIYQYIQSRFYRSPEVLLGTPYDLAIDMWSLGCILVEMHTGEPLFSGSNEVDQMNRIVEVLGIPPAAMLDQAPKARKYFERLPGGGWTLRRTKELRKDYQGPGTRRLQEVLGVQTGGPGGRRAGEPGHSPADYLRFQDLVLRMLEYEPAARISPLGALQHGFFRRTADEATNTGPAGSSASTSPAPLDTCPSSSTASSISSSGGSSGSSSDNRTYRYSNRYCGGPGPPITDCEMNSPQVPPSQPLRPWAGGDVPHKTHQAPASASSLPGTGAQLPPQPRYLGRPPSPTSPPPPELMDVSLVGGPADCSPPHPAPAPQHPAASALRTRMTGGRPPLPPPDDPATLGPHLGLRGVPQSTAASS
Chain of Casein kinase 2 (P67874 whole entry): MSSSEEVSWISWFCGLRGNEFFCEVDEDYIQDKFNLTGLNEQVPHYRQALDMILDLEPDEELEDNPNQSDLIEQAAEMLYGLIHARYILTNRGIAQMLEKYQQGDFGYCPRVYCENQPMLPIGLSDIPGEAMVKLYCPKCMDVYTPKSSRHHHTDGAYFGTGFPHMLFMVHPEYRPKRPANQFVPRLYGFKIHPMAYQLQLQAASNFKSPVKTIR
Chain of Casein kinase 2 (P19139 whole entry): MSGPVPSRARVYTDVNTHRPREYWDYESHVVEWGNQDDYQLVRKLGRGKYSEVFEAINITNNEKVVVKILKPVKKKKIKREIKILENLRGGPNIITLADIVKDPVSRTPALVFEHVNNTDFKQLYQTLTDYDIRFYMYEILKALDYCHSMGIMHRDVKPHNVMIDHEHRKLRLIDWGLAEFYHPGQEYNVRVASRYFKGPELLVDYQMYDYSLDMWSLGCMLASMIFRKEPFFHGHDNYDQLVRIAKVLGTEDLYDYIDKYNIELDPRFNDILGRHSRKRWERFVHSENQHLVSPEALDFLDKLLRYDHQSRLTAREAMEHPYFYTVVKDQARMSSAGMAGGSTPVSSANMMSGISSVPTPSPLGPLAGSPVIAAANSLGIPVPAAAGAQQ
Chain of Dual specificity protein kinase CLK2 (P49760 whole entry): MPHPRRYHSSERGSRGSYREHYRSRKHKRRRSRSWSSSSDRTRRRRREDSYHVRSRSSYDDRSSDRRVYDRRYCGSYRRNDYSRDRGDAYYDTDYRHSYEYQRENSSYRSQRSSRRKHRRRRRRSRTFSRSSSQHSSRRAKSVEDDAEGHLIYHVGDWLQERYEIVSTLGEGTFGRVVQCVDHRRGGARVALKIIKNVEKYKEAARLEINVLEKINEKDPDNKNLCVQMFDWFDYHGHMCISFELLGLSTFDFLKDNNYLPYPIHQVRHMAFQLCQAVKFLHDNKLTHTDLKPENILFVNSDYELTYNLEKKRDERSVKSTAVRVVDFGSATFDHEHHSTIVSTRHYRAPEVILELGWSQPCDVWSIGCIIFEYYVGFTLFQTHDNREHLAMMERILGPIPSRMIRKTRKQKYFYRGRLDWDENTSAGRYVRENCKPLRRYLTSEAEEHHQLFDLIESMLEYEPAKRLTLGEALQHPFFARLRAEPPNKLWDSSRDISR
Chain of Cyclin-dependent kinase 9 (P50750 whole entry, the tested form may be a part): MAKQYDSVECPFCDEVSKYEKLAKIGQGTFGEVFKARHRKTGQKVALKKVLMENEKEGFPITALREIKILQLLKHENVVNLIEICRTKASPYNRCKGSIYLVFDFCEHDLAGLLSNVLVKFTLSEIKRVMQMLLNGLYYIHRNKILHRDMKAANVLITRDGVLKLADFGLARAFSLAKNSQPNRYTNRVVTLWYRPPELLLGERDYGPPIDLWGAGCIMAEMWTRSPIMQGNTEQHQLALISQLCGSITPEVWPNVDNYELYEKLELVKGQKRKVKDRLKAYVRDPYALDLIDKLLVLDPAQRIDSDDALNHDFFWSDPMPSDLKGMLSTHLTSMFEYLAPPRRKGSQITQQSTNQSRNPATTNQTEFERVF
Chain of Dual specificity protein kinase CLK1 (P49759 whole entry): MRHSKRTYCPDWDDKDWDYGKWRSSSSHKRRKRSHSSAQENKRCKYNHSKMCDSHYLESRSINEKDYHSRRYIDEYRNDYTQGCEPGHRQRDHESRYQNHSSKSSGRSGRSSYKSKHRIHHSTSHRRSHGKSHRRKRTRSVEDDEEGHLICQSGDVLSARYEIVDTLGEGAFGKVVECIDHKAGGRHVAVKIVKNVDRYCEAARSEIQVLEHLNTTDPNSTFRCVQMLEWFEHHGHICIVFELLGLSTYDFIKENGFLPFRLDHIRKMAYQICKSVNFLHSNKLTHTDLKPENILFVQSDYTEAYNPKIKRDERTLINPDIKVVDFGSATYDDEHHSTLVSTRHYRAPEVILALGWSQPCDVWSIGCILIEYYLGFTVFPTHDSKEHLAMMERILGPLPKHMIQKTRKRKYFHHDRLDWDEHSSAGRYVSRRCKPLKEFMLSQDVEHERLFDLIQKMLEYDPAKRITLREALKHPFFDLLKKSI

inhibition [1]: 60 to 100%
SMILES: O=C(O)c1ccc(-n2cnc3ccc(-c4ccncc4)cc32)cc1

IC50 [4]: > 10000 nM
inhibition [3]: 90%
SMILES: COc1ccc2c3ccnc(Cl)c3n(CC#N)c2c1

IC50 [8]: 6400 nM
IC50 [9]: 620 nM
SMILES: COc1cc(-c2cc(=O)c3c(O)cc(O)c(C/C=C(\C)CCC=C(C)C)c3o2)ccc1O

IC50 [10]: 410 nM
IC50 [11]: 60 to 70 nM
SMILES: O=C1NC(Nc2ccccc2)=N/C1=C/c1ccc2c(c1)OCO2

EC50 (SW-620): 306 nM
SMILES: COc1cc2[nH]c(=O)c(C(=O)Nc3cc(C(=O)NCc4cccc(Cl)c4)ccc3C)cc2cc1CCCN1CCOCC1

IC50 [13]: 1300 nM
SMILES: CC[C@H](CO)Nc1nc(NCc2ccccc2)n2ncc(C(C)C)c2n1

inhibition [1]: 60 to 100%
SMILES: NC(=O)c1ccc(-n2cnc3ccc(-c4ccncc4)cc32)cc1

inhibition [1]: 60 to 100%
SMILES: COC(=O)c1ccc(-n2cnc3ccc(-c4ccncc4)cc32)cc1

IC50 (Casein kinase 2): 32300 nM
SMILES: Cc1cc(=O)oc2cc3cc(O)ccc3cc12

IC50 (Casein kinase 2): 370 nM
SMILES: Cc1cc(=O)oc2cc3c([N+](=O)[O-])c(O)ccc3cc12

IC50 [16]: 10 nM
SMILES: CCOc1ccccc1CNc1nc(C)nc2[nH]cc(-c3ccnc(N)c3)c12

inhibition [1]: 60 to 100%
SMILES: COc1ccc(-n2cnc3ccc(-c4ccncc4)cc32)cc1

inhibition [19]: 91%
inhibition [20]: 90%
inhibition [21]: 84%
SMILES: COc1ccc(/C=C/C(=O)c2c(O)cc(OC)cc2OC)cc1

The next lines start with the compound.

SMILES: COc1ccc2c3ccnc(C)c3n(CC#N)c2c1
IC50 [2]: 81 nM
inhibition [3]: 92%

SMILES: CN1C(=O)/C(=C\c2ccc3c(c2)OCO3)N=C1N
IC50 [5]: 100 nM
IC50 [6]: 910 nM
IC50 [7]: 490 nM

SMILES: COc1ccc2c(c1)[nH]c1c(C)nccc12
inhibition [3]: > 60%

SMILES: Cc1nccc2c1[nH]c1cc(O)ccc12
IC50 [12]: 90 nM

SMILES: CN(C)c1nc2c(Br)c(Br)c(Br)c(Br)c2[nH]1
IC50 [9]: 400 nM

SMILES: N#Cc1ccc(-n2cnc3ccc(-c4ccncc4)cc32)cc1
inhibition [1]: 60 to 100%

SMILES: CC(C)[C@H](CO)Nc1nc(Nc2cccc(Cl)c2)c2ncn(C(C)C)c2n1 [PURVALANOLA]
IC50 [14]: 300 nM

SMILES: CS(=O)(=O)c1ccc(-n2cnc3ccc(-c4ccncc4)cc32)cc1
inhibition [1]: 60 to 100%

SMILES: N=C1NC(=O)/C(=C/c2ccc3c(c2)CCO3)S1
IC50 [15]: 24.1 nM

SMILES: c1cc(-c2ccc3ncn(-c4ccc5[nH]cnc5c4)c3c2)ccn1
inhibition [1]: 60 to 100%

SMILES: Brc1c(Br)c(Br)c2[nH]cnc2c1Br
IC50 [9]: 2100 nM

SMILES: O=c1[nH]c(NCCO)nc2ccc3[nH]ncc3c12
IC50 [17]: 610 nM

SMILES: O=C(O[C@@H]1Cc2c(O)cc(O)cc2O[C@@H]1c1cc(O)c(O)c(O)c1)c1cc(O)c(O)c(O)c1 [EPIGALOCATECHIN GALLATE]
IC50 [18]: 1000 nM
